For the test, the system named is Primary human keratinocytes (NHK). The experiment in a line: Mitochondrial ROS in keratinocytes, dihydrorhodamine labeling quantified by FACS. It is filed as cell-based. To be noted: NHK pretreated one hour, basal untreated = 100. How it is done:
Primary human keratinocytes (NHK) were isolated from the foreskin of healthy children and cultured in a serum-free medium supplemented with bovine pituitary extract (250 μg/mL) and EGF (0.25 ng/mL). The NHKs are then seeded onto 6-well plates and incubated in a controlled atmosphere. When the keratinocytes reach 70 to 80% confluence, the cells are pretreated, or not, for one hour with various components. As a positive control, the NHKs are pretreated for one hour with […] (100 μM). The plates are then washed 3 times with a PBS solution before incubating the pretreated NHKs for one hour in the presence of H2O2 (100 μM) or LPS (100 ng/mL). At the end of the incubation, the cells are incubated in a solution of dihydrorhodamine (5 μM) for 30 minutes at 37° C., which allows for the labeling of ROS, particularly mitochondrial ROS. After 3 washes with a PBS solution, the mitochondrial ROS are quantified by FACS.

As for Sinapine, the “Mitochondrial ROS Level (%)” value came out at 100% (no stress treatment (—), sinapine 100 μM); 100% (then H2O2 (100 μM) one hour, H2O2 alone = 352); 97% (then LPS (100 ng/mL) one hour, LPS alone = 124).

The record behind these values is US20250161377A1, “COMPOSITION COMPRISING AT LEAST ONE BIFIDOBACTERIUM STRAIN FOR THE TREATMENT OF VITILIGO” (INSTITUT NATIONAL DE LA SANTE ET DE LA RECHERCHE MEDICALE, priority 2022, published 2025).
